Data from ChEMBL document CHEMBL6120974, “Hydrazide-Based Class I Selective HDAC Inhibitors Completely Reverse Chemoresistance Synergistically in Platinum-Resistant Solid Cancer Cells” (J Med Chem, 2024).
Active and inactive are the calls of the source. The calls are words filed in the database; no cut-off is given here.

Legend:
A2780 [1] = assay: Induction of apoptosis in human A2780 cells assessed as caspase-3/7 activation at 2 uM incubated for 48 hrs by capase3/7 green dye based analysis; assay type: functional, cell-based
A2780 [2] = assay: Downregulation of survivin expression in human A2780 cells at 0.75 uM in presence of cisplatin at 3.5 uM preincubated with compound for 48 hrs prior to addition of cisplatin and measured after 24 hrs by Immunoblotting analysis; assay type: functional, cell-based; settings: time 72.0 hrs
CAL-27 [3] = assay: Induction of apoptosis in human CAL-27 cells assessed as increase in BIM expression at 0.316 uM incubated for 48 hrs by Immunoblotting analysis; assay type: functional, cell-based
A2780cisR [4] = assay: Induction of apoptosis in cisplatin resistant human A2780 cisR cells assessed as increase in Bcl-2 protein level at 2 uM in presence of cisplatin at 16 uM preincubated with compound for 48 hrs prior to addition of cisplatin and measured after 24 hrs by Immunoblotting analysis; assay type: functional, cell-based; settings: time 72.0 hrs
cells [5] = settings: Homo sapiens, A2780cisR
Description: Inhibition of class IIa/8 HDAC (unknown origin) in cisplatin resistant human A2780 cisR cells using Boc-Lys(TFA)-AMC as substrate preincubated with compound for 18 hrs followed by substrate addition and measured after 3 hrs by NOVOstar microplate reader analysis

A2780cisR [6] = assay: cells; settings: Homo sapiens, 72 h
CAL-27 [7] = assay: Induction of apoptosis in human CAL-27 cells assessed as increase in Bcl-2 protein level at 0.316 uM in presence of cisplatin at 3 uM preincubated with compound for 48 hrs prior to addition of cisplatin and measured after 24 hrs by Immunoblotting analysis; assay type: functional, cell-based
A2780cisR [8] = assay: Effect on survivin expression in human cisplatin resistant human A2780 cisR cells at 2 uM incubated for 48 hrs by Immunoblotting analysis; assay type: functional, cell-based
A2780cisR [9] = assay: Induction of DNA damage in cisplatin resistant human A2780 cisR cells assessed as increase in gammaH2AX formation at 2 uM in presence of cisplatin at 16 uM pretreated with compound for 48 hrs prior to addition of cisplatin and measured after 24 hrs by Hoechst 33342 staining based Immunofluorescence analysis; assay type: functional, cell-based; settings: time 72.0 hrs
cells [10] = settings: Homo sapiens, A2780cisR; remark: listed apart in the source
Description: Inhibition of class I/6 HDAC (unknown origin) in cisplatin resistant human A2780 cisR cells using Boc-Lys(epsilon-Ac)-AMC as substrate preincubated with compound for 18 hrs followed by substrate addition and measured after 3 hrs by NOVOstar microplate reader analysis

Histone deacetylase 4 = Histone deacetylase 4 (Homo sapiens, UniProt P56524); assay: Inhibition of recombinant HDAC4 (unknown origin) using Bos-Lys(TFA)-AMC as substrate preincubated with compound for 5 mins and measured after 90 mins by NOVOstar microplate reader analysis
CAL-27 [11] = assay: Induction of apoptosis in human CAL-27 cells assessed as apoptotic nuclei at sub-G1 phase at 0.316 uM incubated for 48 hrs by flow cytometric analysis; assay type: functional, cell-based
cells [12] = settings: Homo sapiens, CAL-27
Description: Inhibition of class I/6 HDAC (unknown origin) in human CAL-27 cells using Boc-Lys(epsilon-Ac)-AMC as substrate preincubated with compound for 18 hrs followed by substrate addition and measured after 3 hrs by NOVOstar microplate reader analysis

HL-60 = assay: cells; settings: Homo sapiens, HL-60, 72 h
Description: Cytotoxicity against human HL-60 cells harboring p53 null assessed as cell viability incubated for 72 hrs by MTT assay

A2780 [13] = assay: cells; settings: Homo sapiens, A2780, 72 h
Description: Cytotoxicity against human A2780 cells assessed as reduction in cell viability incubated for 72 hrs by MTT assay

A2780cisR [14] = assay: Induction of apoptosis in cisplatin resistant human A2780 cisR cells assessed as increase in apoptotic nuclei at sub-G1 phase at 2 uM incubated for 48 hrs by flow cytometric analysis; assay type: functional, cell-based
CAL-27 [15] = assay: Induction of apoptosis in human CAL-27 cells assessed as increase in apoptotic nuclei at sub-G1 phase at 0.316 uM in presence of cisplatin at 3 uM preincubated with compound for 48 hrs prior to addition of cisplatin and measured after 24 hrs by flow cytometric analysis; assay type: functional, cell-based; settings: time 72.0 hrs
Cal27CisR [16] = assay: Downregulation of survivin expression in cisplatin resistant human Cal27CisR cells at 0.316 uM incubated for 48 hrs by Immunoblotting analysis; assay type: functional, cell-based
Cal27CisR [17] = assay: Downregulation of survivin expression in cisplatin resistant human Cal27CisR cells at 0.316 uM in presence of cisplatin at 16.5 uM preincubated with compound for 48 hrs prior to addition of cisplatin and measured after 24 hrs by Immunoblotting analysis; assay type: functional, cell-based; settings: time 72.0 hrs
CAL-27 [18] = assay: Downregulation of BAX expression in human CAL-27 cells at 0.316 uM incubated for 48 hrs by Immunoblotting analysis; assay type: functional, cell-based
cells [19] = settings: Homo sapiens, Cal27CisR
Description: Inhibition of class I/6 HDAC (unknown origin) in cisplatin resistant human Cal27CisR cells using Boc-Lys(epsilon-Ac)-AMC as substrate preincubated with compound for 18 hrs followed by substrate addition and measured after 3 hrs by NOVOstar microplate reader analysis

A2780cisR [20] = assay: Downregulation of survivin expression in cisplatin resistant human A2780 cisR cells at 2 uM incubated for 48 hrs by Immunoblotting analysis; assay type: functional, cell-based
Cal27CisR [21] = assay: Downregulation of BAX expression in cisplatin resistant human Cal27CisR cells at 0.316 uM incubated for 48 hrs by Immunoblotting analysis; assay type: functional, cell-based
[22] = Cytotoxicity against human HEK293 cells assessed as reduction in cell viability incubated for 72 hrs by MTT assay; assay type: toxicity, cell-based
A2780 [23] = assay: Induction of DNA damage in human A2780 cells assessed as increase in gammaH2AX formation at 0.75 uM in presence of cisplatin at 3.5 uM pretreated with compound for 48 hrs prior to addition of cisplatin and measured after 24 hrs by Hoechst 33342 staining based Immunofluorescence analysis; assay type: functional, cell-based; settings: time 72.0 hrs

Sequence of Histone deacetylase 4 (P56524 whole entry): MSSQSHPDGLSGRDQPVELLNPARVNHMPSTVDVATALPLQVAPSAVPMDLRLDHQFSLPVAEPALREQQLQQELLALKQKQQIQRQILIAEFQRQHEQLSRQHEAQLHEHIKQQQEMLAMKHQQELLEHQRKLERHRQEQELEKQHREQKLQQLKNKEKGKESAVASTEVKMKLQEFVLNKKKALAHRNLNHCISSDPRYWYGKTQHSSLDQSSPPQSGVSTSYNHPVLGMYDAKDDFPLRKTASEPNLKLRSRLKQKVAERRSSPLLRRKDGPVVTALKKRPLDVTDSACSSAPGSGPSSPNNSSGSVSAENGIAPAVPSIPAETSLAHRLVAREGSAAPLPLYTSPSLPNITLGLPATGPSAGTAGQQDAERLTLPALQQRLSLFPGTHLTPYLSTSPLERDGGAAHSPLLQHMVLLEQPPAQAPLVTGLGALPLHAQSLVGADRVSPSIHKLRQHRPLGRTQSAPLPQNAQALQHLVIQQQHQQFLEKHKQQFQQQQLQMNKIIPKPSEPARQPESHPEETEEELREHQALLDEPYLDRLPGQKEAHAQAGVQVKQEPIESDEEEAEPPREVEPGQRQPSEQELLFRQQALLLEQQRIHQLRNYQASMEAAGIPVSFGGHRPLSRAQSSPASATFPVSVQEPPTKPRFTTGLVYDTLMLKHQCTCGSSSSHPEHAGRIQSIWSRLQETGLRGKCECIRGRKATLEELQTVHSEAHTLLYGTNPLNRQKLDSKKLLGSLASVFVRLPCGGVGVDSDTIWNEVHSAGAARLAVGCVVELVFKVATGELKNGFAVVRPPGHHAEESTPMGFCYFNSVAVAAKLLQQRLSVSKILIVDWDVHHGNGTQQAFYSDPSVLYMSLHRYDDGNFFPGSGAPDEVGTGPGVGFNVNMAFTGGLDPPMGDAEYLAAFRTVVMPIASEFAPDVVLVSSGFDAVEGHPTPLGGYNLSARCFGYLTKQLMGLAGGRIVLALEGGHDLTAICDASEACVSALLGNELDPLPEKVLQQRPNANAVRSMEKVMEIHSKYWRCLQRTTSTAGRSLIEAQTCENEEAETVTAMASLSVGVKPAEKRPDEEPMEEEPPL

CCCNNC(=O)c1ccc(CN(CC(=O)NCc2ccccc2)C(=O)c2ccc(N(C)C)cc2)cc1
Activity (A2780 [1]): Active; Remarkable Activation Observed | Activity (A2780 [2]): Active | Activity (CAL-27 [3]): Active | Activity (A2780cisR [4]): Active | IC50 (cells [5]): 12500 nM | IC50 (A2780cisR [6]): 2460 nM | Activity (CAL-27 [7]): Not active; Slight Increase Observed | Activity (A2780cisR [8]): inactive | Activity (A2780cisR [9]): inactive | IC50 (cells [10]): 295 nM | IC50 (Histone deacetylase 4): > 10000 nM | Activity (CAL-27 [11]): Active; Moderate Percentage Of Apoptotic Nuclei Observed | IC50 (cells [12]): 151 nM | IC50 (HL-60): 431 nM | IC50 (A2780 [13]): 1130 nM | Activity (A2780cisR [14]): Active | Activity (CAL-27 [15]): Active | Activity (Cal27CisR [16]): Active | Activity (Cal27CisR [17]): Active | Activity (CAL-27 [18]): Active | IC50 (cells [19]): 155 nM | Activity (A2780cisR [20]): Active | Activity (Cal27CisR [21]): Active | IC50 at 72 h [22]: 1160 nM | Activity (A2780 [23]): inactive

CCCCNNC(=O)c1ccc(CN(CC(=O)NCc2ccccc2)C(=O)c2ccc(N(C)C)cc2)cc1
Activity (A2780 [1]): Active; Remarkable Activation Observed | Activity (A2780 [2]): Active | Activity (CAL-27 [3]): Active | Activity (A2780cisR [4]): Active | IC50 (cells [5]): 11000 nM | IC50 (A2780cisR [6]): 2690 nM | Activity (CAL-27 [7]): Not active; Slight Increase Observed | Activity (A2780cisR [8]): inactive | Activity (A2780cisR [9]): inactive | IC50 (cells [10]): 268 nM | IC50 (Histone deacetylase 4): > 10000 nM | Activity (CAL-27 [11]): Active; Moderate Percentage Of Apoptotic Nuclei Observed | IC50 (cells [12]): 166 nM | IC50 (HL-60): 474 nM | IC50 (A2780 [13]): 894 nM | Activity (A2780cisR [14]): Active | Activity (CAL-27 [15]): Active | Activity (Cal27CisR [16]): Active | Activity (Cal27CisR [17]): Active | Activity (CAL-27 [18]): Active | IC50 (cells [19]): 156 nM | Activity (A2780cisR [20]): Active | Activity (Cal27CisR [21]): Active | IC50 at 72 h [22]: 1090 nM | Activity (A2780 [23]): inactive
